Legend:
[1] = test system: chorion of zebrafish eggs; assay: Uptake of fluorescein-dextran by zebrafish eggs incubated with guanidine-containing compounds (chorion permeability); type: in vivo; conditions: 40 mM compound, 1 μM of 10, 20 or 40 KD fluorescein-dextran, 24 hours, versus untreated eggs
Procedure: Zebrafish eggs were incubated in solutions that contained 1 μM of 10, 20 or 40 KD fluorescein-dextran with either 0 or 40 mM of arginine, guanidine-HCl or guanidine-thiocyanate for 24 hours.
40 zebrafish eggs were transferred into each well of 48-well plates that contained 300 μl of fresh tank system water. After the allocation of eggs, system water in each well was replaced with 300 μl of water that contained 0 or 40 μM of poly-arginine (9-arginine polymer) and 1 μM of 10 KD fluorescein-dextran. After 4 hours of incubation the eggs were examined using a MZ12 stereomicroscope (Leica, Buffalo Grove, USA), or an Axioplan 2 fluorescence microscope (ZEISS, Thornwood, N.Y., USA). Both microscopes were equipped with a DP70 digital camera (Olympus, Center Valley, Pa., USA).

[2] = test system: Atlantic salmon eggs; assay: Induction of sterility in Atlantic salmon by immersion of eggs in salmonids' dnd-MO or dnd-MO-Vivo; conditions: 10-month-old fish
Procedure: A salmonids' dnd-MO (see Example 5) or a dendrimeric octaguanidine with a triazine core also known as Vivo, which was conjugated to salmonids' dnd-MO, resulting in salmonids' dnd-MO-Vivo, was used to induce sterility in Atlantic salmon and was tested by administering the following: • I: Salmonids' dnd-MO-Vivo 10 μM for 48 hours, administration to fertilized eggs at the beginning of water activation (within 1 minute). • II: Salmonids' dnd-MO-Vivo 10 μM for 48 hours, administration to unfertilized eggs with the immersion medium of the ovarian fluid. The eggs were fertilized after 48 hours of incubation. • III: Salmonids' dnd-MO-Vivo 10 μM for 48 hours, administration to unfertilized eggs with the immersion medium that contains salt, Tris (pH 8.0), Glycine, and 5% of fish serum. The fertilization was conducted after 48 hours of incubation. • IV: Salmonids' dnd-MO 20 μM for 48 hours, administration to unfertilized eggs with the immersion medium of the ovarian fluid. The eggs were fertilized after 48 hours of incubation. • V: Salmonids' dnd-MO 20 μM for 48 hours, administration to unfertilized eggs with the immersion medium that contains salt, Tris (pH 8.0), Glycine, and 5% of fish serum. The eggs were fertilized after 48 hours of incubation. • VI: Water or immersion medium only without neither salmonids' dnd-MO-Vivo nor dnd-MO as controls.

[3] = test system: rainbow trout embryos / unfertilized eggs; assay: Induction of sterility in rainbow trout by immersion of eggs in salmonids' dnd-MO-Vivo; conditions: 10 μM for 48 hours
Procedure: A dendrimeric octaguanidine with a triazine core also known as Vivo, was conjugated to salmonids' dnd-MO, 5′-[…]-3′ (SEQ ID NO. 3) and used in an immersion containing rainbow trout embryos in water, or unfertilized eggs in ovarian fluid or fertilization diluent. The ability of methods disclosed herein to induce sterility in rainbow trout was tested by administering the following:
I: Salmonids' dnd-MO-Vivo 10 μM for 48 hours, administration to fertilized eggs at the beginning of water activation (within 1 minute)
II: Salmonids' dnd-MO-Vivo 10 μM for 48 hours, administration to unfertilized eggs with the immersion medium of the ovarian fluid. The fertilization was conducted after 48 hours of incubation.
III: Salmonids' dnd-MO-Vivo 10 μM for 48 hours, administration to unfertilized eggs with the fertilization diluent that contains salt, Tris (pH 8.0), Glycine, and 5% of fish serum. The fertilization was conducted after 48 hours of incubation.
IV: Water or immersion medium only without salmonids' dnd-MO-Vivo as controls.

N=C(N)NCCC[C@H](N)C(=O)O [arginine]
uptake of fluorescein-dextran in the eggs (green fluorescence) [1]: enhanced the uptake of fluorescein-dextran

Cl.N=C(N)N [guanidine-HCl]
uptake of fluorescein-dextran in the eggs (green fluorescence) [1]: enhanced the uptake of fluorescein-dextran

N#CS.N=C(N)N [guanidine-thiocyanate]
uptake of fluorescein-dextran in the eggs (green fluorescence) [1]: enhanced the uptake of fluorescein-dextran

salmonids' dnd-MO-Vivo: Vivo (dendrimeric octaguanidine with a triazine core) conjugated to salmonids' dnd-MO, 5′-CTGACTTGAACGCTCCTCCATTATC-3′ (SEQ ID NO. 3) (all phosphorodiamidate morpholino (PMO); Vivo octaguanidine dendrimer conjugated, attachment position not given here)
gonadal development in Atlantic salmon ([2]; dnd-MO-Vivo 10 μM for 48 hours): blocked gonadal development | gonad morphology ([2]; dnd-MO-Vivo 10 μM for 48 hours, treatments I, II, III): developed into a thin filament-like tissue | infertility in rainbow trout [3]: induced infertility | histological examination of gonadal tissue ([3]; treatments I, II and III): under-developed without advanced gonadal structure or germ cells | gonad morphology ([3]; treatments I, II and III (fertilized eggs at water activation; unfertilized eggs in ovarian fluid or fertilization diluent)): developed into a thin filament-like tissue

salmonids' dnd-MO: antisense Morpholino oligomer against salmonid dead end, 5′-CTGACTTGAACGCTCCTCCATTATC-3′ (SEQ ID NO. 3) (all phosphorodiamidate morpholino (PMO))
gonad morphology ([2]; dnd-MO 20 μM for 48 hours, treatments IV, V (unfertilized eggs in ovarian fluid or immersion medium)): developed into a thin filament-like tissue | gonadal development in Atlantic salmon ([2]; dnd-MO 20 μM for 48 hours, unfertilized eggs): blocked gonadal development
